Results as given in US20250270227A1, “CAMPTOTHECIN DERIVATIVE, AND PHARMACEUTICAL COMPOSITION AND USE THEREOF” (SIMCERE ZAIMING PHARMACEUTICAL CO., LTD., priority 2021, published 2025).
Read-outs that look alike come from different tables or passages of the source.

Experiments:
Experiment in all cases: Test 1 of anti-proliferative activity against tumor cells (Cell-Titer Glo)
Assay type in all cases: cell-based
[1] = tested on: Human colorectal cancer cell line HCT116
Description: (§1) Cell culture: HCT116 cells and SKBR3 cells were cultured in McCoy's 5a medium containing 10% fetal bovine serum+1% penicillin-streptomycin at 37° C. and 5% CO2, and OVCAR3 cells were cultured in 1640 medium containing 20% fetal bovine serum+2 μg/mL bovine insulin+1% penicillin-streptomycin at 37° C. and 5% CO2. Cells in logarithmic growth phase were suitable for the experiment.
(§2) Detection of cell proliferation activity: The inhibitory activity of the compounds on the proliferation of the three cell lines HCT116, SKBR3 and OVCAR3 was detected using Cell-Titer Glo reagent. HCT116 cells (1500 cells per well), SKBR3 cells (3000 cells per well) and OVCAR3 cells (5000 cells per well) were seeded in 96-well plates and cultured at 37° C. and 5% CO2 for 24 h. The solution of the compound to be tested (the compound was dissolved in DMSO with the concentration of the compound being 1 mM, then the compound was diluted to 3 μM with DMSO, with 3-fold dilution and a total of 9 concentrations, and 10 μL of the prepared compound solution was transferred to a 96-well plate with the final concentration of 0-300 nM) was added. The cells were placed at 37° C. and 5% CO2 for further culture. HCT116 cells were cultured for 3 days, and SKBR3 cells and OVCAR3 cells were cultured for 5 days. The cell viability was detected by adding Cell-Titer Glo reagent.
(§3) Additionally, a negative control group and a positive control group were provided as Bottom and Top, respectively. In the negative control group, the cells were not added, only the same volume of medium was added, and other operations were consistent with those in the experimental group; in the positive control group, the test compound was not added, only the same volume of DMSO was added, and other operations were consistent with those in the experimental group.
(§4) Data analysis: The % compound inhibition was calculated, and fitting was performed to obtain IC50 of the compound.
(§5) % Compound inhibition=1−100%*(Signal−Bottom)/(Top−Bottom).
(§6) Signal represents the signal value of the experimental group, Bottom represents the average signal value of the negative control group, and Top represents the average signal value of the positive control group.

[2] = tested on: human breast cancer cell line SKBR3
Description: as §1, §2, §3, §4, §5, §6

[3] = tested on: human ovarian cancer cell line OVCAR3
Description: as §1, §2, §3, §4, §5, §6

[4] = Homo sapiens, HCT-116, 72 h, read-out: HCT116 Anti-proliferative activity IC50 (nM), HCT116 cells, cultured 3 days with compound, Cell-Titer Glo
[5] = Homo sapiens, SK-BR-3, 120 h, read-out: SKBR3 Anti-proliferative activity IC50 (nM), SKBR3 cells, cultured 5 days with compound, Cell-Titer Glo
[6] = Homo sapiens, OVCAR-3, 120 h, read-out: OVCAR3 Anti-proliferative activity IC50 (nM)

Structure (SMILES): CC[C@@]1(O)C(=O)OCc2c1cc1n(c2=O)Cc2c-1nc1cc(F)c(Cl)c(F)c1c2CNC(=O)[C@H](C)O [Compound 26, (S)-N-(((S)-9-chloro-4-ethyl-8,10-difluoro-4-hydroxy-3,14-dioxo-3,4,12,14-tetrahydro-1H-pyrano[3′,4′:6,7]indolizino[1,2-b]quinolin-11-yl)methyl)-2-hydroxypropanamide]
- IC50 [1, 4]: 9.5 nM
- IC50 [2, 5]: 4.2 nM
- IC50 [3, 6]: 1.6 nM

Structure (SMILES): CC[C@@]1(O)C(=O)OCc2c1cc1n(c2=O)Cc2c-1nc1ccc3c(c1c2CNC(=O)C(O)C1CC1)CCC3 (stereo partly drawn) [Compound 13, 2-cyclopropyl-N-(((S)-8-ethyl-8-hydroxy-9,12-dioxo-2,3,8,9, 12,14-hexahydro-1H,11H-cyclopentadieno[f]pyrano[3′,4′:6,7]indolizino [1,2-b]quinolin-15-yl)methyl)-2-hydroxyacetamide]
- IC50 [1, 4]: 8 nM
- IC50 [3, 6]: 0.7 nM

Structure (SMILES): CC[C@@]1(O)C(=O)OCc2c1cc1n(c2=O)Cc2c-1nc1cc(F)c(Cl)c(F)c1c2CNC(=O)C(O)C1CC1 (stereo partly drawn) [Compound 23, N-(((S)-9-chloro-4-ethyl-8,10-difluoro-4-hydroxy-3,14-dioxo-3,4,12,14-tetrahydro-1H-pyrano[3′,4′:6,7]indolizino[1,2-b]quinolin-11-yl)methyl)-2-cyclopropyl-2-hydroxyacetamide]
- IC50 ([1]; read-out: HCT116 Anti-proliferative activity IC50, HCT116 cells, cultured 3 days with compound, Cell-Titer Glo): 5.6 nM
- IC50 ([2]; read-out: SKBR3 Anti-proliferative activity IC50, SKBR3 cells, cultured 5 days with compound, Cell-Titer Glo): 5.3 nM
- IC50 [3, 6]: 3.9 nM

Structure (SMILES): CC[C@@]1(O)C(=O)OCc2c1cc1n(c2=O)Cc2c-1nc1cc(F)c(Cl)c(F)c1c2CNC(=O)C(O)C1CC1 (stereo partly drawn) [Compound 23-P1, N-(((S)-9-chloro-4-ethyl-8,10-difluoro-4-hydroxy-3,14-dioxo-3,4,12,14-tetrahydro-1H-pyrano[3′,4′:6,7]indolizino[1,2-b]quinolin-11-yl)methyl)-2-cyclopropyl-2-hydroxyacetamide]
- IC50 ([1]; Homo sapiens, HCT-116, 72 h, HCT116 cells, cultured 3 days with compound, Cell-Titer Glo, read-out: HCT116 Anti-proliferative activity IC50): 7.9 nM
- IC50 ([2]; Homo sapiens, SK-BR-3, 120 h, SKBR3 cells, cultured 5 days with compound, Cell-Titer Glo, read-out: SKBR3 Anti-proliferative activity IC50): 5.8 nM
- IC50 ([3]; Homo sapiens, OVCAR-3, 120 h, OVCAR3 cells, cultured 5 days with compound, Cell-Titer Glo, read-out: OVCAR3 Anti-proliferative activity IC50): 1.9 nM

Structure (SMILES): CC[C@@]1(O)C(=O)OCc2c1cc1n(c2=O)Cc2c-1nc1cc(Cl)c(C)cc1c2CNC(=O)CO [Compound 6, (S)-N-((8-chloro-4-ethyl-4-hydroxy-9-methyl-3,14-dioxo-3,4, 12,14-tetrahydro-1H-pyrano[3′,4′:6,7]indolizino[1,2-b]quinolin-11-yl)methyl)-2-hydroxyacetamide]
- IC50 [1, 4]: 12.6 nM
- IC50 [2, 5]: 4.8 nM
- IC50 [3, 6]: 2.1 nM

Structure (SMILES): CC[C@@]1(O)C(=O)OCc2c1cc1n(c2=O)Cc2c-1nc1cc3c(c(Cl)c1c2CNC(=O)C(O)C1CC1)OCO3 (stereo partly drawn) [Compound 30, N-(((S)-15-chloro-7-ethyl-7-hydroxy-8,11-dioxo-7,8,11,13-tetrahydro-10H-[1,3]dioxolo[4,5-g]pyrano[3′,4′:6,7]indolizino[1,2-b]quinolin-14-yl)methyl)-2-cyclopropyl-2-hydroxyacetamide]
- IC50 [1, 4]: 4.6 nM
- IC50 [3, 6]: 0.4 nM

Structure (SMILES): CC[C@@]1(O)C(=O)OCc2c1cc1n(c2=O)Cc2c-1nc1cc(Cl)c3c(c1c2CNC(=O)C(O)C1CC1)CCC3 (stereo partly drawn) [Compound 34, N-(((S)-4-chloro-8-ethyl-8-hydroxy-9,12-dioxo-2,3,8,9,12,14-hexahydro-1H,11H-cyclopentadieno[f]pyrano[3′,4′:6,7]indolizino[1,2-b]quinolin-15-yl)methyl)-2-cyclopropyl-2-hydroxyacetamide]
- IC50 [1, 4]: 2.3 nM
- IC50 [3, 6]: 0.6 nM

Structure (SMILES): CC[C@@]1(O)C(=O)OCc2c1cc1n(c2=O)Cc2c-1nc1cc(F)c(Cl)c(F)c1c2CNC(=O)[C@@H](C)O [Compound 25, (R)-N-(((S)-9-chloro-4-ethyl-8,10-difluoro-4-hydroxy-3,14-dioxo-3,4,12,14-tetrahydro-1H-pyrano[3′,4′:6,7]indolizino[1,2-b]quinolin-11-yl)methyl)-2-hydroxypropanamide]
- IC50 [1, 4]: 7.9 nM
- IC50 [2, 5]: 3.7 nM
- IC50 [3, 6]: 2 nM

Structure (SMILES): CC[C@@]1(O)C(=O)OCc2c1cc1n(c2=O)Cc2c-1nc1cc(F)c(Cl)c(F)c1c2CNC(=O)C(C)(C)O [Compound 22, (S)-N-((9-chloro-4-ethyl-8,10-difluoro-4-hydroxy-3,14-dioxo-3,4,12,14-tetrahydro-1H-pyrano[3′,4′:6,7]indolizino[1,2-b]quinolin-11-yl)methyl)-2-hydroxy-2-methylpropanamide]
- IC50 [1, 4]: 4 nM
- IC50 [2, 5]: 3.5 nM
- IC50 [3, 6]: 1.4 nM

Structure (SMILES): CC[C@@]1(O)C(=O)OCc2c1cc1n(c2=O)Cc2c-1nc1cc(F)c(Cl)c(F)c1c2CNC(=O)C(O)C1CC1 (single isomer, unassigned) [Compound 23-P2]
- IC50 ([1]; HCT116 cells, cultured 3 days with compound, Cell-Titer Glo, read-out: HCT116 Anti-proliferative activity IC50): 9.5 nM
- IC50 ([2]; SKBR3 cells, cultured 5 days with compound, Cell-Titer Glo, read-out: SKBR3 Anti-proliferative activity IC50): 4.5 nM
- IC50 ([3]; OVCAR3 cells, cultured 5 days with compound, Cell-Titer Glo, read-out: OVCAR3 Anti-proliferative activity IC50): 1.5 nM

Structure (SMILES): CC[C@@]1(O)C(=O)OCc2c1cc1n(c2=O)Cc2c-1nc1cc(F)c(Cl)c(F)c1c2CNC(=O)CCO [Compound 32, (S)-N-((9-chloro-4-ethyl-8,10-difluoro-4-hydroxy-3,14-dioxo-3,4,12,14-tetrahydro-1H-pyrano[3′,4′:6,7]indolizino[1,2-b]quinolin-11-yl)methyl)-3-hydroxypropanamide]
- IC50 [1, 4]: 9.8 nM
- IC50 [3, 6]: 1 nM

Structure (SMILES): CC[C@@]1(O)C(=O)OCc2c1cc1n(c2=O)Cc2c-1nc1cc3c(c(F)c1c2CNC(=O)CO)OCO3 [Compound 38, (S)-N-((7-ethyl-15-fluoro-7-hydroxy-8,11-dioxo-7,8,11,13-tetrahydro-10H-[1,3]dioxolo[4,5-g]pyrano[3′,4′:6,7]indolizino[1,2-b]quinolin-14-yl)methyl)-2-hydroxyacetamide]
- IC50 [3, 6]: 2.9 nM

Structure (SMILES): CC[C@@]1(O)C(=O)OCc2c1cc1n(c2=O)Cc2c-1nc1cc(F)c(Cl)c(F)c1c2CNC(=O)CO [Compound 21, (S)-N-((9-chloro-4-ethyl-8,10-difluoro-4-hydroxy-3,14-dioxo-3,4,12,14-tetrahydro-1H-pyrano[3′,4′:6,7]indolizino[1,2-b]quinolin-11-yl)methyl)-2-hydroxyacetamide]
- IC50 [1, 4]: 7.1 nM
- IC50 [2, 5]: 4 nM
- IC50 [3, 6]: 1.7 nM

Structure (SMILES): CC[C@@]1(O)C(=O)OCc2c1cc1n(c2=O)Cc2c-1nc1cc(Cl)c3c(c1c2CNC(=O)CO)CCC3 [Compound 33, (S)-N-((4-chloro-8-ethyl-8-hydroxy-9,12-dioxo-2,3,8,9,12,14-hexahydro-1H,11H-cyclopentadieno[f]pyrano[3′,4′:6,7]indolizino[1,2-b]quinolin-15-yl)methyl)-2-hydroxyacetamide]
- IC50 [1, 4]: 5.5 nM
- IC50 [3, 6]: 0.8 nM

Structure (SMILES): CC[C@@]1(O)C(=O)OCc2c1cc1n(c2=O)Cc2c-1nc1cc3c(c(F)c1c2CNC(=O)CN)OCO3 [Compound 40, (S)-2-amino-N-((7-ethyl-15-fluoro-7-hydroxy-8,11-dioxo-7,8,11,13-tetrahydro-10H-[1,3]dioxolo[4,5-g]pyrano[3′,4′:6,7]indolizino[1,2-b]quinolin-14-yl)methyl)acetamide]
- IC50 [3, 6]: 11.3 nM
